IC50 and EC50 data for eleven compounds are collected here from patent US20250195521A1 (Revolution Medicines, Inc., priority 2020, published 2025).

Each structure is given as a SMILES string. pEC50, pIC50: −log10 of the molar value. Like-named read-outs stand apart in the source and are kept apart here.

For one test, the system named is NCI-H358 (K-Ras G12C). The test can be described thus: CellTiter-Glo cell viability assay, NCI-H358. Type of test: cell-based, human. In short, it runs like this:
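Luminescent CellTiter-Glo read-out on day 5 after compound exposure; signal expressed as percent of mean DMSO control; four-parameter logistic fit gives the value.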
For orientation: ATP-based viability assays read luminescence as a measure of living cells.

Test [1] deals with K-Ras G12C (NCI-H358 cells). The test can be described thus: Potency assay: pERK in NCI-H358 cells. Type of test: cell-based, human. Particulars: read-out: pERK EC50 (H358 KRAS G12C). In short, it runs like this: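 Cells plated the day before were exposed for 4 h at 37° C, 5% CO2 to a 10-point, 3-fold DMSO dilution series (10 mM top stock), in duplicate. Phospho-ERK was read by AlphaLISA SureFire Ultra or by In-Cell Western with DRAQ5 DNA stain, and IC50 came from a 4-parameter sigmoidal fit.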

Where [2] appears, read: Homo sapiens, NCI-H358, 120 h, 5-day treatment; read-out: H358 Cell Viability assay data (K-Ras G12C, IC50).
Setting [3] is: Homo sapiens, NCI-H358 cells, 4 hours.
Where [4] appears, read: read-out: H358 Cell Viability assay data (K-Ras G12C, IC50); 5-day treatment.
[5] abbreviates: 5-day treatment; read-out: H358 Cell Viability assay data (K-Ras G12C, IC50).

A word on the pIC50: it is the IC50 on a negative log10 scale, so that one unit is a factor of ten. As a reminder, the pEC50 is the EC50 on a negative log10 scale, so that one unit is a factor of ten. As to `CCn1c(-c2cnccc2COC)c2c3cc(ccc31)-c1cc(O)cc(c1)C[C@H](NC(=O)[C@H](C(C)C)N(C)CC(F)(F)F)C(=O)N1CCC[C@H](N1)C(=O)OCC(C)(C)C2` [Compound A77], in the test on NCI-H358 (K-Ras G12C) (setting [2]), the negative-log IC50 (pIC50) is 7.00 to 8.00. Further, the negative logarithm of the EC50 (pEC50) in test [1] (setting [3]) is over 5.30.

For the compound `CCn1c(-c2cnccc2COC)c2c3cc(ccc31)-c1cc(O)cc(c1)C[C@H](NC(=O)[C@H](C(C)C)N(C)C(=O)[C@@H]1CN(C(C)=O)C[C@@H]1C(F)(F)F)C(=O)N1CCC[C@H](N1)C(=O)OCC(C)(C)C2` [Compound A80], the pIC50 in the test with NCI-H358 (K-Ras G12C) (setting [2]) is 6.00 to 7.00. In addition, the pEC50 in test [1] (setting [3]) was over 5.30.

Take `CCn1c(-c2cnccc2COC)c2c3cc(ccc31)-c1cc(O)cc(c1)C[C@H](NC(=O)[C@H](C(C)C)N(C)C(=O)[C@@H]1CCCO1)C(=O)N1CCC[C@H](N1)C(=O)OCC(C)(C)C2` [Compound A91]: the negative-log IC50 (pIC50) in the test on NCI-H358 (K-Ras G12C) (setting [2]) was over 8.00. In addition, the pEC50 in test [1] (setting [3]) was over 5.30.

For `CCn1c(-c2cccnc2[C@H](C)OC)c2c3cc(ccc31)-c1cc(O)cc(c1)C[C@H](NC(=O)[C@H](C(C)C)N(C)C(=O)[C@H]1CCN(C(=O)CN(C)C)C1)C(=O)N1CCC[C@H](N1)C(=O)OCC(C)(C)C2` [Compound A95], the pIC50 with NCI-H358 (K-Ras G12C) (setting [2]) is 7.00 to 8.00. Also, in test [1] (setting [3]), the negative logarithm of the EC50 (pEC50) was over 5.30.

As usually defined, the IC50 is the point on the concentration scale where inhibition reaches its midpoint. In the case of `CC#CC(=O)N1CC[C@H](C(=O)N(C)[C@H](C(=O)N[C@H]2Cc3cc(O)cc(c3)-c3ccc4c(c3)c(c(-c3cccnc3[C@H](C)OC)n4CC)CC(C)(C)COC(=O)[C@@H]3CCCN(N3)C2=O)C(C)C)C1` [Compound A145, (2S)-2-{1-[(3S)-1-(but-2-ynoyl)pyrrolidin-3-yl]-N-methylformamido}-N-[(8S,14S,20M)-22-ethyl-4-hydroxy-21-{2-[(1S)-1-methoxyethyl]pyridin-3-yl}-18, 18-dimethyl-9,15-dioxo-16-oxa-10,22,28-triazapentacyclo [18.5.2.1^2,6.1^10,14.0^23,27]nonacosa-1 (26),2,4,6 (29),20,23 (27),24-heptaen-8-yl]-3-methylbutanamide], the IC50 in the test on NCI-H358 (K-Ras G12C) (Homo sapiens, NCI-H358, 120 h, read-out: H358 Cell Viability assay data (K-Ras G12C, IC50, uM), 5-day treatment) was under 0.01 µM. In addition, the negative-log IC50 (pIC50) with NCI-H358 (K-Ras G12C) (setting [4]) was 7.00 to 8.00. The pEC50 in test [1] (Homo sapiens, NCI-H358, 4 h) is over 5.30.

As for `CCn1c(-c2cccnc2[C@H](C)OC)c2c3cc(ccc31)-c1cc(O)cc(c1)C[C@H](NC(=O)[C@H](C(C)C)N(C)C(=O)C13CNCC1C3)C(=O)N1CCC[C@H](N1)C(=O)OCC(C)(C)C2` (stereo partly drawn) [Compound A155], the pIC50 in the test on NCI-H358 (K-Ras G12C) (setting [5]) was 7.00 to 8.00; in the test with NCI-H358 (K-Ras G12C) (setting [2]), over 8.00. For the same compound, the negative logarithm of the EC50 (pEC50) in test [1] (setting [3]) was over 5.30.

For `CCn1c(-c2cccnc2[C@H](C)OC)c2c3cc(ccc31)-c1cc(O)cc(c1)C[C@H](NC(=O)[C@H](C(C)C)N(C)C(=O)C1CC13CC3)C(=O)N1CCC[C@H](N1)C(=O)OCC(C)(C)C2` (stereo partly drawn) [Compound A156], in the test on NCI-H358 (K-Ras G12C) (setting [2]), the pIC50 is 7.00 to 8.00. In addition, in test [1] (setting [3]), the pEC50 was over 5.30.

For the compound `CC#CC(=O)N1CC[C@H](C(=O)N(C)[C@@H](C(=O)N[C@H]2Cc3cc(O)cc(c3)-c3ccc4c(c3)c(c(-c3cccnc3[C@H](C)OC)n4CC)CC(C)(C)COC(=O)[C@@H]3CCCN(N3)C2=O)C(C)C)C1` [Compound A199], the pIC50 in the test on NCI-H358 (K-Ras G12C) (setting [4]) is 6.00 to 7.00. Further, the negative logarithm of the EC50 (pEC50) in test [1] (Homo sapiens, NCI-H358, 4 h) was over 5.30.

In the case of `CCn1c(-c2cccnc2[C@H](C)OC)c2c3cc(ccc31)-c1cccc(c1)C[C@H](NC(=O)[C@H](C(C)C)N(C)C(=O)[C@H]1CCN(C(=O)/C=C/CN3CC(OC)C3)C1)C(=O)N1CCC[C@H](N1)C(=O)OCC(C)(C)C2` [Compound A203], in the test on NCI-H358 (K-Ras G12C) (setting [5]), the negative logarithm of the IC50 (pIC50) is under 5.00. Also, the pEC50 in test [1] (NCI-H358 cells, 4 hours) was over 5.30.

In the case of `CCn1c(-c2cccnc2[C@H](C)OC)c2c3cc(ccc31)-c1cccc(c1)C[C@H](NC(=O)[C@H](C(C)C)N(C)C(=O)[C@H]1CCN(C(=O)/C=C/CN3CC(OC)C3)C1)C(=O)N1CCC[C@H](N1)C(=O)OCC(C)(C)C2` [Compound A204], in the test with NCI-H358 (K-Ras G12C) (setting [5]), the pIC50 was 7.00 to 8.00. Moreover, the pEC50 in test [1] (setting [3]) is over 5.30.

With `CCn1c(-c2cccnc2[C@H](C)OC)c2c3cc(ccc31)-c1cc(O)cc(c1)C[C@H](NC(=O)[C@H](C(C)C)N(C)C(=O)C1(CO)CC1)C(=O)N1CCC[C@H](N1)C(=O)OCC(C)(C)C2` [Compound A232], the pIC50 with NCI-H358 (K-Ras G12C) (setting [2]) was 7.00 to 8.00. Also, in test [1] (setting [3]), the pEC50 is over 5.30.
